Legend:
[1] = system: lactate dehydrogenase (LDH) release; test: LDH release from HIV-1-infected HLACs (pyroptosis); assay type: cell-based, human; conditions: caspase inhibitors 50 μM or 100 μM, 3 days, FIG. 16C
Procedure: Caspase-1 activation can lead to a highly inflammatory form of cell death called pyroptosis. To gain insight into how CD4 T cells die, it was determined whether HIV infection in CD4 T cells induce pyroptosis cell death, as measured by lactate dehydrogenase (LDH) release. HLACs were left uninfected or infected with NL4-3 in the presence of no drugs, efavirenz, AMD3100, or caspase inhibitors (50 μM or 100 μM), as indicated in FIG. 16C. After 3 days, the supernatants were assayed for the cytosolic enzyme lactate dehydrogenase (LDH) and the LDH released by dying cells was quantified.

[2] = system: HIV-1 reverse transcription products; test: Taqman QPCR of HIV-1 reverse transcription products in infected CD4 T-cells; assay type: cell-based, human; conditions: 16 hours after infection with NL4-3, versus untreated cells
Procedure: Fresh HLACs were washed once with PBS and resuspended with PBS containing 5 mM EDTA and 2% fetal bovine serum. CD4 T-cells were isolated from HLACs by positive selection on CD4 microbeads (Miltenyi) and cultured overnight in 96-well U-bottomed plates (1×10^6 cells/well) as described above, and AZT was added to the indicated cell samples. Next day, the rest of the drugs were added to the indicated cell samples at concentrations as described above. Cells were chilled on ice for 15 min and DNAse-treated (Ambion, 60 U/ml, 1 hour, 37° C.) NL4-3 or Δvif NL4-3 virions (200 ng/well) were added. After a 1 hour incubation with virions on ice, cells were spinoculated at 1200 g for 2 hours at 4° C., incubated at 37° C. for 2 hours, washed three times with cold PBS, and resuspended in fresh RPMI with the indicated drugs. Eight or 16 hours after spinoculation, cell pellets were frozen at −80° C. Total DNA was purified from each cell pellet with a DNAse kit (Qiagen). Primer and probe sequences used to detect reverse transcription products are provided herein. QPCR reactions were performed in triplicates in TaqMan universal PCR master mix using each primer at 3.75 μM and probe at 2.5 μM. After 15 minutes at 95° C., reactions underwent 50 cycles of 15 sec at 95° C. followed by 1 min at 60° C. in an ABI Prism 7900HT (Applied Biosystems).
Next the status of HIV-1 reverse transcription in tonsillar CD4 T-cells after infection was examined. […] Taqman-based quantitative real-time PCR (QPCR) was used to quantify the synthesis of reverse transcription products in isolated CD4 T-cells from HLAC 16 hours after infection with NL4-3. Specific QPCR primers and probes were designed (Table 1) to monitor sequential steps in reverse transcription including generation of strong-stop DNA, first template exchange (Nef), and DNA strand elongation (Env) (FIG. 10A)

[3] = system: CFSE-labeled spleen CD4 T-cells; test: Indirect killing assay with CFSE-labeled human spleen cells; assay type: cell-based; conditions: for loss of CFSE-labeled spleen CD4 T-cells: HIV-infected spleen HLAC effectors; for loss of resting CFSE-labeled spleen CD4 T-cells: HIV-infected tonsil effector cells
Procedure: (B and C) Fresh human spleen from a single donor were processed into HLAC and assessed in indirect cell killing assay as described in FIG. 2A. Effector spleen HLAC were stimulated with PHA and IL-2 48 hours before mixing, but not during co-culturing with CFSE-labeled cells. Non-activated resting CFSE-labeled spleen cells were co-cultured with NL4-3-infected or uninfected effector cells in the presence or absence of the following drugs, AZT (5 μM), AMD3100 (250 nM), Efavirenz (100 nM), or Raltegravir (30 μM), as indicated. […] Percentages were normalized to the number of viable CFSE-positive spleen CD4 T-cells co-cultured with uninfected effectors in the presence of AZT, as depicted by (*). Error bars represent standard error of the mean for three experiments performed with three different spleen and tonsil donors.
Human tonsil or splenic tissues from routine tonsillectomies were obtained from the National Disease Research Interchange and the Cooperative Human Tissue Network and processed as previously described (Jekle et al., 2003, J Virol 77:5846-5854). In brief, tonsils or spleen were minced, passed through a 40-μm cell strainer, and cultured in 96-well U-bottomed polystyrene plates (2×10^6 cells/well) in medium (200 μl/well) consisting of RPMI 1640 supplemented with 15% heat-inactivated fetal bovine serum, 100 μg/ml gentamicin, 200 μg/ml ampicillin, 1 mM sodium pyruvate, 1% nonessential amino acids (Mediatech), 2 mM L-glutamine, and 1% fungizone (Invitrogen). All HIV-1 infections were carried out with 20-50 ng of HIV-1 p24^gag. Cells were incubated with the virus for 12-16 h, washed extensively, and supplemented with fresh medium. After day 5, infections were monitored by measuring p24gag levels in the culture medium using a FLAQ assay (Hayden et al., 2003, AIDS 17:629-631). Infected and uninfected cultures were manipulated as described for individual experiments. In “indirect killing” assays, unless otherwise stated, drugs were used at the following concentrations: 5 μM AZT; 250 nM AMD3100; 10 μg/ml T20; 100 nM Efavirenz; 1 μM Nevirapine; 30 μM Raltegravir; 60 μM 118-D-24; 5 μM Amprenavir; 5 μM Saquinavir; 5 μM Indinavir. CFSE-labeled cells were activated with PHA (5 μg/ml) and IL-2 (20 ng/ml) 2 days before mixing with effector cells.
Uninfected cells (5×10^6/ml) were labeled with 1 μM CFSE (Molecular Probes C1157), treated with 5 μM AZT for 24 h, and co-cultured with effector cells. CFSE readily diffuses into cells, where intracellular esterases cleave the acetate groups, converting it to a fluorescent, membrane-impermeable dye. […] To quantify indirect killing, mixed (CFSE-labeled+effector) cultures were washed in FACS buffer (PBS supplemented with 2 mM EDTA and 2% fetal bovine serum), stained with PE-conjugated anti-CD4, PerCP-conjugated anti-CD19, and APC-conjugated anti-CD8 (all from BD Pharmingen) and fixed in 1% paraformaldehyde. To determine the absolute numbers of the viable CFSE-labeled cells, a standard number of fluorescent beads (Flow-Count Fluorospheres, Beckman Coulter) was added to each cell-suspension sample before data acquisition. Data were collected on a FACS Calibur (BD Biosciences) and analyzed with Flowjo software (Treestar). The level of indirect killing was defined by sequential gating beginning with forward scatter versus side scatter to select live lymphocytes, subgating on the CFSE-positive population, and calculating the numbers of CD4 or CD8 T or B cells, divided by the number of fluorescent beads acquired.

[4] = system: CD4 T cells in HIV-1 (NL4-3)-infected HLACs; test: CD4 T-cell death in HIV-1-infected HLACs, viable CD4 T cells by flow cytometry; assay type: cell-based, human; conditions: FIG. 15, 4 different donors

| SMILES | LDH release from HIV-1 infected cells [1] | reverse transcription products corresponding to strong-stop DNA [2] | loss of CFSE-labeled spleen CD4 T-cells [3] | death of infected CD4 T-cells [4] | loss of resting CFSE-labeled spleen CD4 T-cells [3] |
| --- | --- | --- | --- | --- | --- |
| c1cc(CN2CCCNCCNCCCNCC2)ccc1CN1CCCNCCNCCCNCC1 [AMD3100] | LDH was not released | greatly reduced | prevented the loss of CD4 T-cells as efficiently as AMD3100 | inhibit the death of infected CD4 T-cells | – |
| Cc1cn([C@H]2C[C@H](N=[N+]=[N-])[C@@H](CO)O2)c(=O)[nH]c1=O [AZT] | – | similar | robust in the absence of drugs or in the presence of AZT | – | massively depleted |
| O=C1Nc2ccc(Cl)cc2[C@@](C#CC2CC2)(C(F)(F)F)O1 [efavirenz] | LDH was not released | – | prevented the loss of CD4 T-cells as efficiently as AMD3100 | inhibit the death of infected CD4 T-cells | prevented this loss of CD4 T-cells |
